The results in this text go back to ChEMBL document CHEMBL1130363, “Design and synthesis of hapten to induce phospholipase A2-like catalytic antibody” (Bioorg Med Chem Lett, 1997).

This experiment has as its target T1, Lysosomal phospholipase A and acyltransferase (Homo sapiens, UniProt Q8NCC3).
T1 sequence (Q8NCC3 whole entry): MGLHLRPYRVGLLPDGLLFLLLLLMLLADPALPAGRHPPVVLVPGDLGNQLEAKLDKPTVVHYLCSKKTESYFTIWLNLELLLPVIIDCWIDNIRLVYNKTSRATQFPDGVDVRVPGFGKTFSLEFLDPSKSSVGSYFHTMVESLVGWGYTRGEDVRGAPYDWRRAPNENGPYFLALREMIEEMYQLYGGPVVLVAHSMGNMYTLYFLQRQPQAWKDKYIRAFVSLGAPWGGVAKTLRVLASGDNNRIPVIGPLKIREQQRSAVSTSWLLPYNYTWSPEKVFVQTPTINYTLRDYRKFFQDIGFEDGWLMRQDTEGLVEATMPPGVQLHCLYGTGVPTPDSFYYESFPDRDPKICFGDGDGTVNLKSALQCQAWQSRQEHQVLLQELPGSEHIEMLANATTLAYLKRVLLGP
Kind of experiment: Inhibitory activity against phospholipase A2 enzyme.

Molecules are shown by their SMILES. pIC50: −log10 of the molar value.

In the case of `CCCCCCCCCCP(=O)(O)OC(COCCCCCCCCCC(=O)OC)COP(=O)([O-])OCC[N+](C)(C)C` (stereo unspecified) [ESTER OF PHOSPHOLIPID], the negative-log IC50 (pIC50) is 2.01.
